From patent publication US9499538B2, “Estrogen receptor modulators and uses thereof” (Seragon Pharmaceuticals, Inc., priority 2012, dated 2016)

What was measured:
MCF-7 cells = assay: Breast Cancer Cell Viability Assays (MCF-7, CellTiter-Glo); type: cell-based; settings: 5 days' compound exposure; for IC50: Homo sapiens, MCF7, 120 h
Experimental: MCF-7 cells were adjusted to a concentration of 20,000 cells per mL in RPMI containing 10% FBS and 20 mM HEPES. 16 microliters of the cell suspension (320 cells) was added to each well of a 384 well plate, and the cells were incubated overnight to allow the cells to adhere. The following day an eleven point, serial semilog dilution of each compound was added to the cells in 16 μL at a final concentration ranging from 0.3-0.000003 μM. After 5 days' compound exposure, 16 μL of CellTiter-GLo (Promega, Madison Wis.) was added to the cells, and the relative luminescence units (RLUs) of each well were determined. CellTiter-Glo added to 32 μL of medium without cells was used to obtain a background value. The Percent viability of each sample was determined as follows: (RLU sample−RLU background/RLU untreated cells−RLU background)×100=% viability. […]

ER-α in MCF-7 cells = target: T1, ER-α in MCF-7 cells (Homo sapiens, UniProt P03372); assay: Breast Cancer Cell ER-α In Cell Western Assay (SP1); type: cell-based; settings: 4 or 24 hr post compound addition; for Emax: MCF7, SP1 antibody, read-out: ER-α In Cell Western Assay (SP1) Max Response; for DC50: SP1 antibody, read-out: ER-α In Cell Western Assay (SP1) IC50
T1 construct: endogenous in cells; host or cells: MCF-7
T1 sequence (P03372 1-595): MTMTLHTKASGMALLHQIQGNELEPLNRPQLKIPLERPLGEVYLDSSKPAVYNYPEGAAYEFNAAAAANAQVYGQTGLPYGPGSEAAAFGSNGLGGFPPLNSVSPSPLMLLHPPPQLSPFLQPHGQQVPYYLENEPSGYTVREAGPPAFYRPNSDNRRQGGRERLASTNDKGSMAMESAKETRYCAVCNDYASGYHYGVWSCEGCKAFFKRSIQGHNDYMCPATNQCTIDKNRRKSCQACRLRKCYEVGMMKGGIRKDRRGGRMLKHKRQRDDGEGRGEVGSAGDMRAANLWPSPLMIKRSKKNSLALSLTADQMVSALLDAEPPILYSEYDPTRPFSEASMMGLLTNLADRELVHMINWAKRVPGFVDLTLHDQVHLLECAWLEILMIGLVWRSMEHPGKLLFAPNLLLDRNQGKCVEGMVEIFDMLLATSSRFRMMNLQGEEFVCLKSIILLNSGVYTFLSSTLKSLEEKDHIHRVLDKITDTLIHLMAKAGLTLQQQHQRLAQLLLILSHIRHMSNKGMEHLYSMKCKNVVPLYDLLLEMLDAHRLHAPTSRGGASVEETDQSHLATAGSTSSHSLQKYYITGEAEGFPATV
Experimental: MCF-7 cells were adjusted to a concentration of 200,000 cells per mL in RPMI containing 10% charcoal-stripped FBS and 20 mM HEPES. 16 microliters of the cell suspension (3200 cells) was added to each well of a poly-D-lysine 384 well plate, and the cells were incubated overnight to allow the cells to adhere. The following day an eleven point, serial semilog dilution of each compound was added to the cells in 16 μL at a final concentration ranging from 0.3-0.000003 μM. At 4 or 24 hr post compound addition, the cells were fixed (10% formalin in PBS) for 20 minutes. Cells were permeablized in PBS 0.1% Triton and blocked with LICOR blocking buffer (50 μl/well, 90′). The wells were then incubated overnight at 4° C. with SP1 rabbit monoclonal Ab (Thermo Scientific) diluted 1:1000 in LICOR blocking buffer/0.1% Tween-20. Wells which were treated with blocking buffer with Tween but no antibody were used as a background control. Wells were washed with 0.1% Tween-20/PBS and then incubated in goat anti-rabbit IRDye™ 800CW (LICOR Inc.; 1:10000) and DRAQ5 DNA dye (1:2000 for 2 mM stock) diluted in LICOR blocking buffer containing 0.1% Tween-20 and 0.01% SDS for 60 minutes. Cells were washed (50 μl/well, 5′ each) in 0.1% Tween-20/PBS. Plates were scanned on a LICOR Odyssey infrared imaging system. Integrated intensities in the 800 nm channel and 700 nm channel were measured to determine levels of ER and DNA respectively. Percent ER levels were determined as follows: (Integrated intensity 800 nm sample/integrated intensity 700 nm sample)/(Integrated intensity 800 nm untreated cells/integrated intensity 700 nm untreated cells)×100=% ER levels. […]

Structure (SMILES)	MCF7 Viability Assay Max Response (MCF-7 cells)	IC50 (MCF-7 cells) [nM]	Emax (ER-α in MCF-7 cells) [%]	DC50 (ER-α in MCF-7 cells) [nM]
COc1cc(/C=C/C(=O)O)ccc1/C(=C(\c1ccccc1)C1CCC1)c1ccc2[nH]nc(F)c2c1 [Example 38, (E)-3-(4-((Z)-2-Cyclobutyl-1-(3-fluoro-1H-indazol-5-yl)-2-phenylvinyl)-3-methoxyphenyl)acrylic acid]	++ (++ = a single % value ≧ 40%)	≤ 100	≥ 40	≤ 100
Fc1n[nH]c2ccc(/C(=C(/c3ccccc3)C3CCC3)c3ccc(/C=C/c4cnc[nH]4)cc3)cc12 [Example 39, 5-((E)-1-(4-((E)-2-(1H-Imidazol-5-yl)vinyl)phenyl)-2-cyclobutyl-2-phenylvinyl)-3-fluoro-1H-indazole]	++ (++ = a single % value ≧ 40%)	≤ 100	≥ 40	≤ 100
N#Cc1ccc(/C(=C(\c2ccc(/C=C/C(=O)O)cc2)c2ccc3[nH]nc(F)c3c2)C2CCC2)c(Cl)c1 [Example 40, (E)-3-(4-((E)-2-(2-Chloro-4-cyanophenyl)-2-cyclobutyl-1-(3-fluoro-1H-indazol-5-yl)vinyl)phenyl)acrylic acid]	++ (++ = a single % value ≧ 40%)	≤ 100	≥ 40	≤ 100
CC/C(=C(/c1ccc(/C=C/C(=O)O)cc1)c1ccc2[nH]ncc2c1)c1cccc(S(=O)(=O)C(F)(F)F)c1 [Example 41, (E)-3-(4-((E)-1-(1H-Indazol-5-yl)-2-(3-((trifluoromethyl)sulfonyl)phenyl)but-1-en-1-yl)phenyl)acrylic acid]	++ (++ = a single % value ≧ 40%)	≤ 100	≥ 40	≤ 100
COc1ccc(/C(=C(\c2ccc(/C=C/C(=O)O)cc2)c2ccc3[nH]ncc3c2)C2CCC2)c(C#N)c1 [Example 42, (E)-3-(4-((E)-2-(2-Cyano-4-methoxyphenyl)-2-cyclobutyl-1-(1H-indazol-5-yl)vinyl)phenyl)acrylic acid]	++ (++ = a single % value ≧ 40%)	≤ 100	≥ 40	≤ 100
N#Cc1ccc(/C(=C(\c2ccc(/C=C/C(=O)O)cc2)c2ccc3[nH]ncc3c2)C2CCC2)c(Cl)c1 [Example 43, (E)-3-(4-((E)-2-(2-Chloro-4-cyanophenyl)-2-cyclobutyl-1-(1H-indazol-5-yl)vinyl)phenyl)acrylic acid]	++ (++ = a single % value ≧ 40%)	≤ 100	≥ 40	≤ 100
COc1ccc(/C(=C(\c2ccc(/C=C/C(=O)O)cc2)c2ccc3[nH]nc(F)c3c2)C2CCC2)c(C#N)c1 [Example 44, (E)-3-(4-((E)-2-(2-Cyano-4-methoxyphenyl)-2-cyclobutyl-1-(3-fluoro-1H-indazol-5-yl)vinyl)phenyl)acrylic acid]	++ (++ = a single % value ≧ 40%)	≤ 100	≥ 40	≤ 100
O=C(O)/C=C/c1ccc(/C(=C(\c2cccc(S(=O)(=O)C(F)(F)F)c2)C2CCC2)c2ccc3[nH]nc(F)c3c2)cc1 [Example 45, (E)-3-(4-((E)-2-Cyclobutyl-1-(3-fluoro-1H-indazol-5-yl)-2-(3-((trifluoromethyl)sulfonyl)phenyl)vinyl)phenyl)acrylic acid]	++ (++ = a single % value ≧ 40%)	≤ 100	≥ 40	≤ 100
Cc1cnccc1/C(=C(\c1ccc(/C=C/C(=O)O)cc1)c1ccc2[nH]nc(F)c2c1)C1CCC1 [Example 46, (E)-3-(4-((E)-2-Cyclobutyl-1-(3-fluoro-1H-indazol-5-yl)-2-(3-methylpyridin-4-yl)vinyl)phenyl)acrylic acid]	++ (++ = a single % value ≧ 40%)	≤ 100	≥ 40	≤ 100
O=C(O)/C=C/c1ccc(/C(=C(\c2ccncc2C(F)(F)F)C2CCC2)c2ccc3[nH]nc(F)c3c2)cc1 [Example 47, (E)-3-(4-((E)-2-Cyclobutyl-1-(3-fluoro-1H-indazol-5-yl)-2-(3-(trifluoromethyl)pyridin-4-yl)vinyl)phenyl)acrylic acid]	++ (++ = a single % value ≧ 40%)	≤ 100	≥ 40	≤ 100
N#Cc1ccc(/C(=C(\c2ccc(/C=C/C(=O)O)cc2)c2ccc3[nH]nc(F)c3c2)C2CCC2)c(F)c1 [Example 48, (E)-3-(4-((E)-2-(4-Cyano-2-fluorophenyl)-2-cyclobutyl-1-(3-fluoro-1H-indazol-5-yl)vinyl)phenyl)acrylic acid]	++ (++ = a single % value ≧ 40%)	≤ 100	≥ 40	≤ 100
N#Cc1cc(F)ccc1/C(=C(\c1ccc(/C=C/C(=O)O)cc1)c1ccc2[nH]nc(F)c2c1)C1CCC1 [Example 49, (E)-3-(4-((E)-2-(2-Cyano-4-fluorophenyl)-2-cyclobutyl-1-(3-fluoro-1H-indazol-5-yl)vinyl)phenyl)acrylic acid]	++ (++ = a single % value ≧ 40%)	≤ 100	≥ 40	≤ 100
Cc1cc(C#N)ccc1/C(=C(\c1ccc(/C=C/C(=O)O)cc1)c1ccc2[nH]nc(F)c2c1)C1CCC1 [Example 50, (E)-3-(4-((E)-2-(4-Cyano-2-methylphenyl)-2-cyclobutyl-1-(3-fluoro-1H-indazol-5-yl)vinyl)phenyl)acrylic acid]	++ (++ = a single % value ≧ 40%)	≤ 100	≥ 40	≤ 100
CS(=O)(=O)c1ccc(/C(=C(\c2ccc(/C=C/C(=O)O)cc2)c2ccc3[nH]nc(F)c3c2)C2CCC2)c(F)c1 [Example 51, (E)-3-(4-((E)-2-Cyclobutyl-1-(3-fluoro-1H-indazol-5-yl)-2-(2-fluoro-4-(methylsulfonyl)phenyl)vinyl)phenyl)acrylic acid]	++ (++ = a single % value ≧ 40%)	≤ 100	≥ 40	≤ 100
O=C(O)/C=C/c1ccc(/C(=C(\c2ccncc2F)C2CCC2)c2ccc3[nH]nc(F)c3c2)cc1 [Example 52, (E)-3-(4-((E)-2-Cyclobutyl-1-(3-fluoro-1H-indazol-5-yl)-2-(3-fluoropyridin-4-yl)vinyl)phenyl)acrylic acid]	++ (++ = a single % value ≧ 40%)	≤ 100	≥ 40	≤ 100
N#Cc1ccc(/C(=C(\c2ccc(/C=C/C(=O)O)cc2)c2ccc3[nH]ncc3c2)C2CCC2)c(F)c1 [Example 53, (E)-3-(4-((E)-2-(4-Cyano-2-fluorophenyl)-2-cyclobutyl-1-(1H-indazol-5-yl)vinyl)phenyl)acrylic acid]	++ (++ = a single % value ≧ 40%)	≤ 100	≥ 40	≤ 100
N#Cc1cc(F)ccc1/C(=C(\c1ccc(/C=C/C(=O)O)cc1)c1ccc2[nH]ncc2c1)C1CCC1 [Example 54, (E)-3-(4-((E)-2-(2-Cyano-4-fluorophenyl)-2-cyclobutyl-1-(1H-indazol-5-yl)vinyl)phenyl)acrylic acid]	++ (++ = a single % value ≧ 40%)	≤ 100	≥ 40	≤ 100
